The values that follow are results of earlier work, collected in US10213490B2, “Compositions for providing agents that degrade in water” (VIRUN, INC., priority 2015, dated 2019).

The structures appear in SMILES notation.

For the molecule `N[C@@H](CCC(=O)N[C@@H](CS)C(=O)NCC(=O)O)C(=O)O` [glutathione], the glutathione remaining result (stored in water at pH 2 and 7, after 7 days) is reported as “approximately 65%”. Besides, the glutathione degraded (stored in water, pH 3 to 6, 7 days) was 20%.
